Laboratory results from the NIST ThermoML archive (doi:10.1021/je8007606).
Numbers after ± are expanded uncertainties.

Assay: excess molar enthalpy (molar enthalpy of mixing); xn = mol fraction of the nth substance listed
Settings: 298.15 K, 101 kPa, Liquid, Calvet calorimetry

CCCCCCCCC [nonane] + CCCO
Settings	excess molar enthalpy [kcal/mol]
x2 = 0.0794	0.118 ± 0.00263
x2 = 0.1401	0.144 ± 0.00311
x2 = 0.2595	0.17 ± 0.00359
x2 = 0.3588	0.174 ± 0.00382
x2 = 0.441	0.173 ± 0.00382
x2 = 0.5192	0.165 ± 0.00359
x2 = 0.5829	0.154 ± 0.00335
x2 = 0.7046	0.129 ± 0.00287
x2 = 0.7517	0.117 ± 0.00263
x2 = 0.7992	0.1 ± 0.00215
x2 = 0.8361	0.086 ± 0.00191
x2 = 0.878	0.0674 ± 0.00143
x2 = 0.911	0.0521 ± 0.0012
x2 = 0.9469	0.0332 ± 0.000717
x2 = 0.9689	0.0206 ± 0.000478
